The results in this text go back to ChEMBL document CHEMBL1134216, “Synthesis, modelling and NK1 antagonist evaluation of a non-rigid cyclopropane-containing analogue of CP-99,994” (Bioorg Med Chem Lett, 2001).

The target of this experiment is Substance-P receptor (Homo sapiens, UniProt P25103). Nature of the experiment: Binding affinity towards Tachykinin receptor 1 expressed in CHO cells using [3H][Pro9]-SP as radioligand. The format is cell-based.
Chain of Substance-P receptor (P25103 whole entry): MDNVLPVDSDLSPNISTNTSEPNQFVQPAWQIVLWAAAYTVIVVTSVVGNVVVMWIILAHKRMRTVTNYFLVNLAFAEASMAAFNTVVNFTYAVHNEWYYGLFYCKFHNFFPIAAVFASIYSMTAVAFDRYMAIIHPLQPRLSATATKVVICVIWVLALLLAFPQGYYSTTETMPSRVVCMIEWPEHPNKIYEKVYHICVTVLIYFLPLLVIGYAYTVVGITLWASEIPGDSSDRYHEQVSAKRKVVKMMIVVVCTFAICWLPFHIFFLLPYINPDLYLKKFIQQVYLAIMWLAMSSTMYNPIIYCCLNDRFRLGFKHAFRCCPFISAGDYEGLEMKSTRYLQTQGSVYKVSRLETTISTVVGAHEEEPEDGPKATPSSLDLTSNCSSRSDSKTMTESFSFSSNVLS

As a reminder, the Ki is a measure of affinity in units of concentration, obtained from inhibition or displacement. Read a low Ki as a stronger hold on the target. For `CNC(c1ccccc1)C1(NCc2cc(C(F)(F)F)cc(C(F)(F)F)c2)CC1` (racemic), the Ki was found to be 620 nM.
The same measure for `CNC(c1ccccc1)C1(NCc2ccccc2OC)CC1` (configuration not stated): 150 nM.
